Assay results published in patent US7868023B2, “Thiophene sulfoximines, compositions thereof, and methods of treating complement-mediated diseases and conditions” (Janssen Pharmaceutica NV, priority 2005, dated 2011).

What was measured:
[1] = biological target: T1, human MASP-2 (Homo sapiens, UniProt O00187); test: In vitro inhibition of MASP-2 (Ki determination, Z-Gly-Arg-S-Bzl hydrolysis, DTNB readout); type: biochemical; conditions: substrate Z-Gly-Arg-S-Bzl 45 μM, 37° C., pH 7.5; Ki app corrected for true Ki
T1 construct: His-tag; made in house; host or cells: Baculovirus expression system in insect cells
From the text: Reagents: All buffer salts were obtained from Sigma Chemical Company (St. Louis, Mo.), and were of the highest purity available. DTNB was purchased from Pierce (Rockford, Ill.). Z-Gly-Arg-S-Bzl was purchased from Enzyme Systems Products (Livermore, Calif.). Autoactivated 2-chain human MASP-2 (His-tag, Cys300-Phe686) was produced in-house from a Baculovirus expression system in insect cells.
Ki Determinations All assays were based on the ability of the test compound to inhibit the MASP-2-catalyzed hydrolysis of the substrate Z-Gly-Arg-S-Bzl, which was observed via a secondary reaction with 5,5′-dithio-bis(2-nitrobenzoic acid) (DTNB). […]
In a typical Ki determination, into each well of a 96-well plate was pipetted 280 μL of substrate solution followed by 10 μL of test compound solution, and the plate was allowed to thermally equilibrate at 37° C. for 10 minutes. Reactions were initiated by the addition of a 10 μL aliquot of the enzyme, and the absorbance increase at 405 nm was continuously recorded for 15 minutes in a Molecular Devices plate reader. […] The ratio of the velocity (rate of change in absorbance as a function of time) for a sample containing no test compound was divided by the velocity of a sample containing test compound, and was plotted as a function of test compound concentration. The data were fit to a linear regression, and the value of the slope of the line calculated. […]

[2] = biological target: T2, activated human C1s (Homo sapiens, UniProt P09871); test: In vitro inhibition of C1s (Ki determination, Z-Gly-Arg-S-Bzl hydrolysis, DTNB readout); type: biochemical; conditions: substrate Z-Gly-Arg-S-Bzl 45 μM, 37° C., pH 7.5
T2 construct: purchased Calbiochem (La Jolla, Calif.)
T2 sequence (P09871 438-688 limits assumed): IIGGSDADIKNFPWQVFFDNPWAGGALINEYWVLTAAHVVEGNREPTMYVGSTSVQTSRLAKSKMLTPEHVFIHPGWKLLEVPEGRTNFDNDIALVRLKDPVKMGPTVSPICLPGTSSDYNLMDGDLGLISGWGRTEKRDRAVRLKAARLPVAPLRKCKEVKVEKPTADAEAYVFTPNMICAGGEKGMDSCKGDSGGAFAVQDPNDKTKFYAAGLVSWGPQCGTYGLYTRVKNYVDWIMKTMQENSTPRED
T2 sequence (P09871 16-437 limits assumed): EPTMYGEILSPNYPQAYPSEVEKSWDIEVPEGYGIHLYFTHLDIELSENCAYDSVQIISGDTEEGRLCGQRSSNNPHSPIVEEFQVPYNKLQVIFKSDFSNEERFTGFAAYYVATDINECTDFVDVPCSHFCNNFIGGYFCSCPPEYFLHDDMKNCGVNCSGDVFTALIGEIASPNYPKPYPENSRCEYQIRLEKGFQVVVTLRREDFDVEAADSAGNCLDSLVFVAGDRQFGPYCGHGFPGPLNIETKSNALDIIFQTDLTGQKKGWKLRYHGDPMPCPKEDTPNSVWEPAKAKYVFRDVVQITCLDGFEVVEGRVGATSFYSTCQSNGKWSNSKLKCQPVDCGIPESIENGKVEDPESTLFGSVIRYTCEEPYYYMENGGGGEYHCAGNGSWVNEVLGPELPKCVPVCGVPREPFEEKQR
From the text: Reagents: All buffer salts were obtained from Sigma Chemical Company (St. Louis, Mo.), and were of the highest purity available. DTNB was purchased from Pierce (Rockford, Ill.). Z-Gly-Arg-S-Bzl was purchased from Enzyme Systems Products (Livermore, Calif.). Activated human C1s was purchased from Calbiochem (La Jolla, Calif.).
Ki Determinations All assays were based on the ability of the test compound to inhibit the C1s-catalyzed hydrolysis of the substrate Z-Gly-Arg-S-Bzl, which was observed via a secondary reaction with 5,5′-dithio-bis(2-nitrobenzoic acid) (DTNB). […]
In a typical Ki determination, into each well of a 96-well plate was pipetted 280 μL of substrate solution, 10 μL of test compound solution, and the plate allowed to thermally equilibrate at 37° C. for 15 minutes. Reactions were initiated by the addition of a 10 μL aliquot of the enzyme, and the absorbance increase at 405 nm was continuously recorded for 15 minutes in a Molecular Devices plate reader. […] The ratio of the velocity (rate of change in absorbance as a function of time) for a sample containing no test compound was divided by the velocity of a sample containing test compound, and was plotted as a function of test compound concentration. The data were fit to a linear regression, and the value of the slope of the line calculated. The inverse of the slope was the experimentally determined Ki value.

T1 sequence (O00187 300-686): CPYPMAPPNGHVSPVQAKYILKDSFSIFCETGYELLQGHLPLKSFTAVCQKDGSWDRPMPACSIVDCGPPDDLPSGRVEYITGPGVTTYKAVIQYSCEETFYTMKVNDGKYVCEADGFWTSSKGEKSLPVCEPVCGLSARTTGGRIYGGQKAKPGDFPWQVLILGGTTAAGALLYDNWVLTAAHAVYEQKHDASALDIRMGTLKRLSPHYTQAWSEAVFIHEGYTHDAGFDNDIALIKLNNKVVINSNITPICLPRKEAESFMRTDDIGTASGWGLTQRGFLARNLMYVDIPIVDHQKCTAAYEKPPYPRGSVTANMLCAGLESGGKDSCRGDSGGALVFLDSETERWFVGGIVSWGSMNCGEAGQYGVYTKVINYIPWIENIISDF
T1 sequence (O00187 300-444): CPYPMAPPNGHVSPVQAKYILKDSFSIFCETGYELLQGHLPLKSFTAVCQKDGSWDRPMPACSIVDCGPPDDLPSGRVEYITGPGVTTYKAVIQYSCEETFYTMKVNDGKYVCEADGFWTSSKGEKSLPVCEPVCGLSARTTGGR

Row | Ki [1] [µM] | Ki [2] [µM] | SMILES
1 | 0.44 | 0.011 | CSc1sc(C(=N)N)cc1S(=O)(=NS(=O)(=O)c1cccc(NC(N)=O)c1)c1cccc(-c2c(C)cc(NC(=N)N)cc2N)c1 (stereo not drawn) [Example 18, 4-[S-[3-(2-Amino-4-guanidino-6-methyl-phenyl)phenyl]-N-(3-ureidobenzene-sulfonyl)sulfoxamino]-5-methylsulfanyl-thiophene-2-carboxamidine bistrifluoroacetate]
2 |  | 0.01 | CSc1sc(C(=N)N)cc1S(=O)(=NS(=O)(=O)c1cccc([N+](=O)[O-])c1)c1cccc(-c2ccc(NC(=N)N)cc2C)c1 (stereo not drawn) [Example 46, 4-[S-[3-(4-guanidino-6-methyl-phenyl)phenyl]-N-(3-nitrobenzene-sulfonyl)sulfoximino]-5-methylsulfanyl-thiophene-2-carboxamidine bistrifluoroacetate]
